Columns and labels:
[1] = test system: SK-CO-1 (Colorectal Carcinoma); experiment: Bliss excess, mean over the matrix (fraction); higher = more synergy
How it was run: (§1)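 Bliss excess equals the observed combination effect minus the expected value EA + EB − EA·EB, where EA and EB are the effects of each agent alone. Combination Emax is the second-highest inhibition within the matrix. Inhibition was scaled from CellTiter-Glo 2.0 luminescence, with 0 set by vehicle wells and 1 by blank wells, after 72 hours of two-drug dosing of cells plated in 1536-well plates.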

[2] = test system: CPC-N (Small Cell Lung Carcinoma); experiment: as above
How it was run: as §1

[3] = test system: LCLC-103H (Non-Small Cell Lung Carcinoma); experiment: as above
How it was run: as §1

[4] = test system: COR-L88 (Small Cell Lung Carcinoma); experiment: as above
How it was run: as §1

[5] = test system: MONO-MAC-6 (Acute Myeloid Leukemia); experiment: as above
How it was run: as §1

[6] = test system: HPAF-II (Pancreatic Carcinoma); experiment: as above
How it was run: as §1

[7] = test system: ES6 (Ewing's Sarcoma); experiment: combination Emax (second highest fraction inhibited in the dose matrix, 72 h); higher = more inhibition; extreme values may be limits of the assay
How it was run: as §1

[8] = test system: NCI-H226 (Mesothelioma); experiment: as above
How it was run: as §1

[9] = test system: GAK (Melanoma); experiment: as above
How it was run: as §1

[10] = test system: SK-CO-1 (Colorectal Carcinoma); experiment: as above
How it was run: as §1

[11] = test system: IST-MEL1 (Melanoma); experiment: as above
How it was run: as §1

[12] = test system: NAMALWA (Burkitt's Lymphoma); experiment: as above
How it was run: as §1

[13] = test system: LCLC-103H (Non-Small Cell Lung Carcinoma); experiment: as above
How it was run: as §1

[14] = test system: SKG-IIIa (Cervical Carcinoma); experiment: as above
How it was run: as §1

[15] = test system: MDA-MB-415 (Breast Carcinoma); experiment: as above
How it was run: as §1

[16] = test system: MONO-MAC-6 (Acute Myeloid Leukemia); experiment: as above
How it was run: as §1

[17] = test system: C-33-A (Cervical Carcinoma); experiment: as above
How it was run: as §1

[18] = test system: RCC-JW (Kidney Carcinoma); experiment: as above
How it was run: as §1

[19] = test system: LS-1034 (Colorectal Carcinoma); experiment: as above
How it was run: as §1

[20] = test system: SCC-4 (Oral Cavity Carcinoma); experiment: as above
How it was run: as §1

SMILES	Bliss excess [1]	Bliss excess [2]	Bliss excess [3]	Bliss excess [4]	Bliss excess [5]	Bliss excess [6]	combination Emax [7]	combination Emax [8]	combination Emax [9]	combination Emax [10]	combination Emax [11]	combination Emax [12]	combination Emax [13]	combination Emax [14]	combination Emax [15]	combination Emax [16]	combination Emax [17]	combination Emax [18]	combination Emax [19]	combination Emax [20]
C=CCn1c(=O)c2cnc(Nc3ccc(N4CCN(C)CC4)cc3)nc2n1-c1cccc(C(C)(C)O)n1 [AZD1775] + CCc1c2c(nc3ccc(O)cc13)-c1cc3c(c(=O)n1C2)COC(=O)[C@]3(O)CC [SN-38] (first compound max 1 µM, partner max 0.3 µM)	-0.0355	0.0523	0.0015	-0.0248	-0.0158	-0.0218	0.607	0.366	0.678	0.898	0.825	1	0.709	0.725	0.469	1	0.997	0.542	0.894	0.902
C=CCn1c(=O)c2cnc(Nc3ccc(N4CCN(C)CC4)cc3)nc2n1-c1cccc(C(C)(C)O)n1 [AZD1775] + Nc1ccn([C@@H]2O[C@H](CO)[C@@H](O)C2(F)F)c(=O)n1 [Gemcitabine] (first compound max 1 µM, partner max 0.3 µM)	-0.0262		0.0858	0.0144	0.0322	0.0046	0.556	0.482	0.612	0.903	0.662	1	0.753	0.643	0.58	1	0.996	0.819		0.688
CN(CCO)CC[C@H](CSc1ccccc1)Nc1ccc(S(=O)(=O)NC(=O)c2ccc(N3CCC([C@@H](O)c4ccccc4-c4ccc(Cl)cc4)CC3)cc2)cc1S(=O)(=O)C(F)(F)F [AZD4320] + CC(=O)O[C@H]1C(=O)[C@@]2(C)[C@H]([C@H](OC(=O)c3ccccc3)[C@]3(O)C[C@H](OC(=O)[C@H](O)[C@@H](NC(=O)c4ccccc4)c4ccccc4)C(C)=C1C3(C)C)[C@]1(OC(C)=O)CO[C@@H]1C[C@@H]2O [Paclitaxel] (first compound max 1 µM, 7x7, partner max 3 µM)	-0.0002	0.0262	0.0719	0.25	0.0285	0.0952	0.779	0.917	0.709	0.972	0.977	1	0.985	0.905	0.923	1	0.989	0.952	0.82	0.971
CN(CCO)CC[C@H](CSc1ccccc1)Nc1ccc(S(=O)(=O)NC(=O)c2ccc(N3CCC([C@@H](O)c4ccccc4-c4ccc(Cl)cc4)CC3)cc2)cc1S(=O)(=O)C(F)(F)F [AZD4320] + CS(=O)(=O)CCNCc1ccc(-c2ccc3ncnc(Nc4ccc(OCc5cccc(F)c5)c(Cl)c4)c3c2)o1 [Lapatinib] (first compound max 1 µM, 7x7, partner max 10 µM)	0.0785	0.052	-0.0224	0.0911	0.103	0.031	0.971	0.309	0.272	0.97	0.364	0.373	0.488	0.479	0.917	0.885	0.476	1	0.939	0.942
CN(CCO)CC[C@H](CSc1ccccc1)Nc1ccc(S(=O)(=O)NC(=O)c2ccc(N3CCC([C@@H](O)c4ccccc4-c4ccc(Cl)cc4)CC3)cc2)cc1S(=O)(=O)C(F)(F)F [AZD4320] + Nc1ccn([C@@H]2O[C@H](CO)[C@@H](O)C2(F)F)c(=O)n1 [Gemcitabine] (first compound max 1 µM, 7x7, partner max 0.3 µM)	-0.0065	0.0415	-0.0122	0.0283	-0.0237	-0.0087	0.824	0.555	0.583	0.945		0.99	0.681	0.475	0.637	1	0.796	0.965	0.592	0.743
Cc1c2c(nn1C)CSCc1cc(n(C)n1)CSc1cc(c3ccccc3c1)OCCCc1c(C(=O)O)n(C)c3c-2c(Cl)ccc13 [AZD5991] + CC(=O)O[C@H]1C(=O)[C@@]2(C)[C@H]([C@H](OC(=O)c3ccccc3)[C@]3(O)C[C@H](OC(=O)[C@H](O)[C@@H](NC(=O)c4ccccc4)c4ccccc4)C(C)=C1C3(C)C)[C@]1(OC(C)=O)CO[C@@H]1C[C@@H]2O [Paclitaxel] (first compound max 1 µM, 7x7, partner max 3 µM)	-0.052	-0.0539	-0.0118	0.0486	0.0152	0.0356	0.312	0.378	0.548	0.858	0.587	1	0.91	0.487	0.838	1	0.912	0.737	0.587	0.868
Cc1c2c(nn1C)CSCc1cc(n(C)n1)CSc1cc(c3ccccc3c1)OCCCc1c(C(=O)O)n(C)c3c-2c(Cl)ccc13 [AZD5991] + CS(=O)(=O)CCNCc1ccc(-c2ccc3ncnc(Nc4ccc(OCc5cccc(F)c5)c(Cl)c4)c3c2)o1 [Lapatinib] (first compound max 1 µM, 7x7, partner max 10 µM)	0.0034	-0.0429	-0.025	-0.0283	0.0012	-0.0209	0.515	0.145	0.352	0.471	0.295	0.977	0.2	0.456	0.558	1	0.514	0.981	0.39	0.81
Cc1c2c(nn1C)CSCc1cc(n(C)n1)CSc1cc(c3ccccc3c1)OCCCc1c(C(=O)O)n(C)c3c-2c(Cl)ccc13 [AZD5991] + Nc1ccn([C@@H]2O[C@H](CO)[C@@H](O)C2(F)F)c(=O)n1 [Gemcitabine] (first compound max 1 µM, 7x7, partner max 0.3 µM)	-0.0284	-0.0387	-0.0722	0.0854	-0.0133	-0.0059	0.529	0.173	0.473	0.864	0.606	1	0.513	0.332	0.526	1	0.895	0.828	0.614	0.53
C[C@@H]1COCCN1c1cc(C2([S@](C)(=N)=O)CC2)nc(-c2ccnc3[nH]ccc23)n1 [AZD6738] + C1CC(C1)(C(=O)[O-])C(=O)[O-].N.N.[Pt+2] [Carboplatin] (first compound max 10 µM, 7x7, partner max 10 µM)	0.0009	-0.0391	-0.0447	-0.0207	-0.0075	-0.0585		0.236	0.491	0.808	0.679	0.896	0.385	0.407	0.549	0.858		0.51	0.677	0.552
C[C@@H]1COCCN1c1cc(C2([S@](C)(=N)=O)CC2)nc(-c2ccnc3[nH]ccc23)n1 [AZD6738] + Nc1ccn([C@@H]2O[C@H](CO)[C@@H](O)C2(F)F)c(=O)n1 [Gemcitabine] (first compound max 10 µM, 7x7, partner max 0.3 µM)	0.0365	0.0021	0.0863	0.105	0.0427		0.731	0.495	0.503	0.897	0.768	1	0.794	0.623	0.642	1	0.969	0.877	0.902	0.849
Cc1cc2ncnn2cc1Nc1ncc2c(n1)n(C1CCOCC1)c(=O)n2C [AZD7648] + COc1cc([C@@H]2c3cc4c(cc3[C@@H](O[C@@H]3O[C@@H]5CO[C@@H](C)O[C@H]5[C@H](O)[C@H]3O)[C@H]3COC(=O)[C@H]23)OCO4)cc(OC)c1O [Etoposide] (first compound max 10 µM, 7x7, partner max 10 µM)	0.0429	0.0611	0.0526	-0.0241	0.159	0.0098	0.36	0.332	0.525	0.879	0.638	0.985	0.584	0.551	0.483	1	0.945	0.56	0.335	0.469
C[C@@H](Nc1cc(F)cc(F)c1)c1cc(C(=O)N(C)C)cc2c(=O)cc(N3CCOCC3)oc12 [AZD8186] + C1CN(CCC1(C(=O)N[C@@H](CCO)C2=CC=C(C=C2)Cl)N)C3=NC=NC4=C3C=CN4 [AZD5363] (first compound max 10 µM, 7x7, partner max 10 µM)	0.0309	-0.0478	-0.0345	-0.0269	0.0692	0.0403	0.365	0.295	0.261	0.725	0.408	0.485	0.417	0.303	0.834	0.547	0.589	0.537	0.294	0.383

Reference: the supplement of paper PMC11061612
